Where two headings read alike, the source gives them in different places.
Tests used:
[1] = tested on: UVB-irradiated mice skin; experiment: In vivo efficacy: skin melanin after UVB irradiation, intradermal injection or topical administration (Example 4B/4C); conditions: for Melanin Mean ± SD (UVB group = 100.0): treatment period 3 weeks
From the text: The IM01 formulation was investigated for in vivo efficacy via intradermal injection, either twice a week (IM01-ID/L) or once a day (IM01-ID/H). [table] The IM01 formulation was investigated for in vivo efficacy via topical administration (IM01-T), following the study design provided in Table 16 below. [table]

[2] = tested on: B16-F10 cells; experiment: In vitro efficacy test: melanin content after α-MSH induction (Example 3); format: cell-based, mouse
Method: Alpha-melanocyte-stimulating hormone (α-MSH) is a peptide hormone capable of inducing melanin production. In this study, the effects of 4-[(E)-2-(3,5-dihydroxyphenyl)ethenyl]benzene-1,3-diol samples (having different concentrations of 4-[(E)-2-(3,5-dihydroxyphenyl)ethenyl]benzene-1,3-diol) on inhibition of melanin production were investigated.
B16-F10 cells were seeded in a 96-well plate at a density of 1×10^5 cells/well and cultured for 24 hours. The cells were then incubated with 0.1 μM α-MSH for 24 hours to include melanin production. The 4-[(E)-2-(3,5-dihydroxyphenyl)ethenyl]benzene-1,3-diol samples with different concentrations were then added to the cultured cells, which were cultured for an additional 24 hours. No α-MSH was used for the vehicle control group.
After the cells were washed once with 1 mL of 1×PBS, add 300 μL of 1×Trypsin-EDTA, they were placed in a 37° C. incubator for 5 minutes. Finally, 1 mL of DMEM was added to the cells, and the number of cells were counted by Trypan blue staining.
Cell suspension was centrifuged at 1500 g for 5 minutes at room temperature, followed by supernatant removal and air-dry of the pellet for 15 minutes. 1 N NaOH (containing 10% DMSO) was added to break up the pellet, followed by shaking by ultrasonic waves for 30 minutes and heating in a water bath at 80° C. for 1.5 hours. After cooling down, the suspension was taken and measured for absorbance at 405 nm. Results were calculated by deducting the reagent blank from the absorbance value at 405 nm and divided by the average absorbance value of the α-MSH Group.

[3] = tested on: B16-F10 cell line; format: cell-based, mouse; conditions: for Relative cell viability (%): mouse
From the text: (§1) Table 23 below lists the study design for evaluating EC50 values of IM01, which contains 4-[(E)-2-(3,5-dihydroxyphenyl)ethenyl]benzene-1,3-diol.
(§2) Table 25 below lists the study design for evaluating EC50 values of IM01, which contains 4-[(E)-2-(3,5-dihydroxyphenyl)ethenyl]benzene-1,3-diol.

[4] = tested on: B16-F10 cell line; experiment: In vitro whitening efficacy: melanin content (Example 7); format: cell-based, mouse
From the text: as §1, §2

[5] = tested on: B16-F10 cells; experiment: In vitro melanin content versus arbutin and hydroquinone (Example 6); format: cell-based, mouse
Method: Except the vehicle group, cells of the other groups were cultured with α-MSH for 24 hours first. The compositions for investigation (see Tables 19 and 20) were then added to the culture medium and the cells were further cultured for 24 hours. The rest of the experimental operation process was similar to that described in Example 3. […] [table] [table]

[6] = tested on: B16-F10 cells; experiment: In vitro efficacy comparison: melanin content, α-MSH 0.5 h then test article 30 h (Example 5); format: cell-based, mouse; conditions: for Melanin content (%) Mean: α-MSH 0.5 h then TA 30 h
Method: B16-F10 cells were seeded in a 96-well plate. Except the vehicle group, cells of the other groups were cultured in the presence of α-MSH for 0.5 hours first. The compositions for examination were then added to the culture medium and the cells were further cultured for 30 hours. The rest of the experimental conditions and procedures were similar to those described in Example 3. Afterwards, the cells were collected to evaluate the effect of 4-[(E)-2-(3,5-dihydroxyphenyl)ethenyl]benzene-1,3-diol compositions (IM01 Group) and Arbutin and 5-[(E)-2-(4-hydroxyphenyl)ethenyl]benzene-1,3-diol (IM00 Group) compositions on reducing melanin levels. The experimental design is summarized in Table 18 and results shown in both Table 18 and FIG. 5.

[7] = tested on: HRM-2 mice; experiment: In vivo efficacy: skin melanin content after UVB irradiation, different administration routes (Example 4A)
From the text: The experiment tested a total of 20 mice using conventional diets in the adaptation period, the induction period, and the test period. After 7 days of adaptation, the mice were randomly divided into a control group and a UVB-c group according to body weight and body weight changes, so that no statistical difference in average body weight and body weight changes were noticeable among the groups. The UVB-c group was subjected to 150 mJ/cm^2/day of UVB irradiation with a frequency of irradiating the back of the mice three times a week.
Injection frequency was once a week, three times in total, with an average injection area of 6 cm^2 skin each time. The IM01—Topical group and the color cream group were administered by smearing once a day for a total of 21 days. […] During the treatment period, the backs of the mice were irradiated with 150 mJ/cm^2/day of UVB three times a week until sacrificed. It should be noted that the timing of UVB exposure and drug administration were staggered.
After sacrificing the mice on day 22, the skin of treatment area was collected and subjected to heat extraction with 0.4 mL NaOH for 1 hour. […] The experimental data were expressed as mean±standard deviation (n=3-5), using Student's t-test analysis, #p<0.05, ##p<0.01 compared with control group; *p<0.05, **p<0.01 compared with UVB-c group.

[8] = IM01-ID/H: ID, 23 mg/mL, once a day
[9] = IM01-ID/L: ID, 23 mg/mL, twice a week
[10] = IM01-T: topical, 45 mg/mL, once a day
[11] = TA 60 μM (/L of IM01 and HQ), HQ vehicle DDW, Table 26
[12] = TA 120 μM (/H of IM01 and HQ), HQ vehicle DDW, Table 26

## Oc1cc(O)cc(/C=C/c2ccc(O)cc2O)c1 [IM01, 4-[(E)-2-(3,5-dihydroxyphenyl)ethenyl]benzene-1,3-diol]
[1]; [8]
  Reduction of melanin production: 23.1%
  Melanin Mean ± SD (UVB group = 100.0): 76.9 ± 12.7
[1]; [9]
  Reduction of melanin production: 13.9%
  Melanin Mean ± SD (UVB group = 100.0): 86.1 ± 14.5
[1]; [10]
  Reduction of melanin production: 21.4%
  Melanin Mean ± SD (UVB group = 100.0): 79.6 ± 12.5
[2]; IM01-C4, IM01-C5 and IM01-C6 groups (22.6, 32, 64 ppm)
  Melanin production compared with vehicle group (without α-MSH): lower than that of the vehicle group
[2]; Mus musculus, B16-F10, printed as equal to 15.2 ppm
  EC50: 62 µM
[2]; TA 8 ppm (IM01-C1)
  Melanin Content Inhibition Ability (%) Mean: 20.1%
[2]; TA 8 ppm (IM01-C1), α-MSH 0.1 μM 24 h then TA 24 h, relative to α-MSH control
  Melanin content (%) Mean: 79.9%
[2]; TA 11.3 ppm (IM01-C2)
  Melanin Content Inhibition Ability (%) Mean: 41.1%
[2]; TA 11.3 ppm (IM01-C2), α-MSH 24 h then TA 24 h
  Melanin content (%) Mean: 58.9%
[2]; TA 16 ppm (IM01-C3)
  Melanin Content Inhibition Ability (%) Mean: 56.8%
[2]; TA 16 ppm (IM01-C3), α-MSH 24 h then TA 24 h
  Melanin content (%) Mean: 43.2%
[2]; TA 22.6 ppm (IM01-C4)
  Melanin Content Inhibition Ability (%) Mean: 66.7%
[2]; TA 22.6 ppm (IM01-C4), α-MSH 24 h then TA 24 h
  Melanin content (%) Mean: 33.3%
[2]; TA 32 ppm (IM01-C5)
  Melanin Content Inhibition Ability (%) Mean: 74%
[2]; TA 32 ppm (IM01-C5), α-MSH 24 h then TA 24 h
  Melanin content (%) Mean: 26.0%
[2]; TA 64 ppm (IM01-C6)
  Melanin Content Inhibition Ability (%) Mean: 84.6%
[2]; TA 64 ppm (IM01-C6), α-MSH 24 h then TA 24 h
  Melanin content (%) Mean: 15.4%
[2]; α-MSH 24 h then TA 24 h
  EC50 (melanin content): around 15.2 ppm
[3]
  Cytotoxicity: low cytotoxicity
[3]; 8 μM
  Relative cell viability (%): 98.4 ± 2.0%
[3]; 16 μM
  Relative cell viability (%): 96.7 ± 2.4%
[3]; 32 μM
  Relative cell viability (%): 98.7 ± 2.2%
[3]; 60 μM
  Relative cell viability (%): 88.5 ± 1.4%
[3]; 64 μM
  Relative cell viability (%): 93.0 ± 1.0%
[3]; 120 μM
  Relative cell viability (%): 84.9 ± 0.4%
[3]; 128 μM
  Relative cell viability (%): 89.8 ± 3.7%
[3]; 181 μM
  Relative cell viability (%): 79.9 ± 5.6%
[3]; 256 μM
  Relative cell viability (%): 74.6 ± 7.0%
[4]; Mus musculus, B16-F10, α-MSH 24 hr + TA 24 hr, 4-256 μM, read-out: EC50 value (reduction of melanin levels induced by α-MSH)
  EC50: ~41.2 µM
[4]; TA 4 μM, α-MSH 24 hr + TA 24 hr, Table 24
  Melanin content (%): 90.2 ± 6.1%
[4]; TA 8 μM, Table 24
  Melanin content (%): 83.2 ± 6.9%
[4]; TA 16 μM, Table 24
  Melanin content (%): 81.8 ± 4.5%
[4]; TA 32 μM, Table 24
  Melanin content (%): 67.7 ± 7.1%
[4]; [11]
  Melanin content (%): 51.7 ± 2.6%
[4]; TA 64 μM, Table 24
  Melanin content (%): 43.0 ± 4.3%
[4]; [12]
  Melanin content (%): 37.7 ± 0.4%
[4]; TA 128 μM, Table 24
  Melanin content (%): 36.1 ± 2.9%
[4]; TA 181 μM, Table 24
  Melanin content (%): 34.8 ±3.5%
[4]; TA 256 μM, Table 24
  Melanin content (%): 25.9 ± 1.5%
[4]; Table 25 concentrations, FIG. 7C
  Melanin inhibition activity compared with arbutin: much greater than arbutin
[5]; 120 μM
  Effect in reducing melanin compared with Arbutin (450 μM or 900 μM) and hydroquinone (120 μM): better than that of the whitening agent Arbutin
  Melanin content compared with vehicle group (no α-MSH induction): even lower than that of the vehicle group
[5]; TA 30 μM, α-MSH 24 hr + TA 24 hr, Table 22 experiment
  Melanin content (%) Mean ± SD: 84.6 ± 3.6%
[5]; TA 60 μM, Table 22 experiment
  Melanin content (%) Mean ± SD: 52.8 ± 3.8%
[5]; TA 60 μM, α-MSH 24 hr + TA 24 hr, Table 21 experiment
  Melanin content (%) Mean ± SD: 47.6 ± 3.4%
[5]; TA 120 μM, Table 21 experiment
  Melanin content (%) Mean ± SD: 26.2 ± 2.4%
[5]; TA 120 μM, Table 22 experiment
  Melanin content (%) Mean ± SD: 33.9 ± 1.4%
[5]; TA 180 μM, Table 22 experiment
  Melanin content (%) Mean ± SD: 11.7 ± 2.3%
[6]; TA 89.19 μM (IM01-20)
  Melanin content (%) Mean: 67.4%
[6]; TA 178.38 μM (IM01-40)
  Melanin content (%) Mean: 43.5%
[6]; Table 18 concentrations
  In vitro effect in reducing melanin relative to 5-[(E)-2-(4-hydroxyphenyl)ethenyl]benzene-1,3-diol and arbutin: better in vitro effects in reducing melanin
[7]; IM01-ID group and IM01-Topical group, intradermal injection or smearing
  Skin color compared with UVB-c group: whiter and brighter than that of the UVB-c group
[7]; IM01-ID group, intradermal, p<0.01
  Melanin level lower than the UVB-c group by: 33.6%
[7]; IM01-ID: intradermal, 20 mg/mL, 0.5 mg/cm^2, once a week
  Percentage change of melanin Mean ± SD (% of UVB-c): −33.6 ± 6.0 % of UVB-c
[7]; IM01-ID: intradermal, 20 mg/mL, 0.5 mg/cm^2, once a week, three times, skin collected day 22
  Melanin Content Mean ± SD (% of UVB-c): 66.4 ± 6.0 % of UVB-c
[7]; IM01-Topical group, p<0.05
  Melanin level lower than the UVB-c group by: 30.6%
[7]; IM01-Topical: 20 mg/mL, 0.4-0.5 mg/cm^2, once a day
  Percentage change of melanin Mean ± SD (% of UVB-c): −30.6 ± 7.6 % of UVB-c
[7]; IM01-Topical: 20 mg/mL, 0.4-0.5 mg/cm^2, once a day for 21 days, day 22
  Melanin Content Mean ± SD (% of UVB-c): 69.4 ± 7.6 % of UVB-c

## OC[C@H]1O[C@@H](Oc2ccc(O)cc2)[C@H](O)[C@@H](O)[C@@H]1O [Arbutin, reference compound]
[3]; 450 μM
  Relative cell viability (%): 100.8 ± 1.2%
[3]; 900 μM
  Relative cell viability (%): 93.7 ± 1.6%
[4]; TA 450 μM (Arbutin/L), Table 26
  Melanin content (%): 78.5 ± 1.1%
[4]; TA 900 μM (Arbutin/H), Table 26
  Melanin content (%): 67.0 ± 2.8%
[5]; TA 450 μM, Table 21 experiment
  Melanin content (%) Mean ± SD: 76.1 ± 6.3%
[5]; TA 900 μM, Table 21 experiment
  Melanin content (%) Mean ± SD: 60.9 ± 4.5%
[5]; TA 900 μM, Table 22 experiment
  Melanin content (%) Mean ± SD: 62.8 ± 1.8%
[5]; TA 1800 μM, Table 22 experiment
  Melanin content (%) Mean ± SD: 47.1 ± 0.3%
[6]; TA 918.27 μM
  Melanin content (%) Mean: 95.8%

## Oc1ccc(O)cc1 [Hydroquinone, hydroquinone, reference compound]
[3]
  Cytotoxicity: high cytotoxicity
[3]; 60 μM
  Relative cell viability (%): 88.2 ± 6.0%
[4]; [11]
  Melanin content (%): 34.6 ± 2.8%
[4]; [12]
  Melanin content (%): 40.5 ± 3.7%
[5]; TA 120 μM, Table 21 experiment
  Melanin content (%) Mean ± SD: 61.5 ± 4.6%

## Oc1ccc(/C=C/c2cc(O)cc(O)c2)cc1 [IM00, 5-[(E)-2-(4-hydroxyphenyl)ethenyl]benzene-1,3-diol]
[6]; TA 87.62 μM (IM00-20)
  Melanin content (%) Mean: 98.9%

— patent US20250017874A1, “PHARMACEUTICAL COMPOSITIONS FOR USE IN REDUCING HYPERPIGMENTATION” (Caliway Biopharmaceuticals Co., Ltd., priority 2023, published 2025)
